As usually defined, the EC50 is the concentration at which the effect is half-maximal. Lower therefore signals a more potent agent.

Experiment [1] is described as follows: Antitumor activity against mouse Lewis lung carcinoma cell line xenografted with C57BL/6J mouse assessed as tumor growth inhibition at 5 mg/kg,ip administrated every 2 days for 21 days relative to control. The experiment is classed as functional. The following applies: 504 h, time 21 day, read-out: TGI.
The target of experiment [2] is T1, Toll-like receptor 1/2 (Homo sapiens, UniProt O60603+Q15399). Put plainly: Agonist activity at human TLR2/TLR1 transfected in HEK293T cells incubated for 24 hrs by dual luciferase reporter gene assay. The experiment is classed as cell-based. For orientation: Reporter assays use an easily measured gene product as a stand-in for the process of interest.
Experiment [3] deals with T1, Toll-like receptor 1/2. In words: Agonist activity at human TLR2/TLR1 transfected in HEK293T cells assessed as relative light unit at 100 ng/ml incubated for 24 hrs by dual luciferase reporter gene assay. In kind it is cell-based. The following applies: filed as agonist.
The subject of another experiment is A549. Put plainly: Antitumor activity against human A549 cells xenografted with BALB/c mouse assessed as tumor growth inhibition at 5 mg/kg,ip administrated every 2 days for 30 days relative to control. The following applies: A549, 720 h, time 30 day, read-out: TGI. The experiment is classed as functional. A general note: In xenograft studies the graft and the host belong to different species.

Where a SMILES comes first, the peptide text is derived from it. The star is where a group is joined. X1 = CCCCCCCCCCCCCCCC(=O)OCC(C*)OC(=O)CCCCCCCCCCCCCCC; Palmitoyl = CCCCCCCCCCCCCCCC(=O)*

T1 sequence (O60603 whole entry): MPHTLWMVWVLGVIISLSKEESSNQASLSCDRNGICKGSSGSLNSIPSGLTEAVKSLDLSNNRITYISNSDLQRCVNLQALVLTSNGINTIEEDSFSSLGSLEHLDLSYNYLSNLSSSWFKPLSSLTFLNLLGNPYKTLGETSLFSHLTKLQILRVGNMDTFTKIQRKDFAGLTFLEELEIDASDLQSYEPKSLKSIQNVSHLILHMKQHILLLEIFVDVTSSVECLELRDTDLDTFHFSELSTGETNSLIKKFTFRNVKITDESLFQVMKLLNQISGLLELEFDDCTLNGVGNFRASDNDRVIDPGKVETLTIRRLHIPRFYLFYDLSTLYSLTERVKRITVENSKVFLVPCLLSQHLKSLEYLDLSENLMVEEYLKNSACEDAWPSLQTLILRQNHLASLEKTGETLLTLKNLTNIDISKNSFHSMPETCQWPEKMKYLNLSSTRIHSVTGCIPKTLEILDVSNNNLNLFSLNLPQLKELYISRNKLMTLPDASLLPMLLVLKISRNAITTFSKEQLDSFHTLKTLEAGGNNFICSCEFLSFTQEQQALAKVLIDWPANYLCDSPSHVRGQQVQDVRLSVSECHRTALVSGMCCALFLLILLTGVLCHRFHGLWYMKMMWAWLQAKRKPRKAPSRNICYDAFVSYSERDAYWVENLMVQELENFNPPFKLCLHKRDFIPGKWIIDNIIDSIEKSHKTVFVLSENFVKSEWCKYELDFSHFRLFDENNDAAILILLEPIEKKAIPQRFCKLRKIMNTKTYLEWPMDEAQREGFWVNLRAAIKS
T1 sequence (Q15399 whole entry): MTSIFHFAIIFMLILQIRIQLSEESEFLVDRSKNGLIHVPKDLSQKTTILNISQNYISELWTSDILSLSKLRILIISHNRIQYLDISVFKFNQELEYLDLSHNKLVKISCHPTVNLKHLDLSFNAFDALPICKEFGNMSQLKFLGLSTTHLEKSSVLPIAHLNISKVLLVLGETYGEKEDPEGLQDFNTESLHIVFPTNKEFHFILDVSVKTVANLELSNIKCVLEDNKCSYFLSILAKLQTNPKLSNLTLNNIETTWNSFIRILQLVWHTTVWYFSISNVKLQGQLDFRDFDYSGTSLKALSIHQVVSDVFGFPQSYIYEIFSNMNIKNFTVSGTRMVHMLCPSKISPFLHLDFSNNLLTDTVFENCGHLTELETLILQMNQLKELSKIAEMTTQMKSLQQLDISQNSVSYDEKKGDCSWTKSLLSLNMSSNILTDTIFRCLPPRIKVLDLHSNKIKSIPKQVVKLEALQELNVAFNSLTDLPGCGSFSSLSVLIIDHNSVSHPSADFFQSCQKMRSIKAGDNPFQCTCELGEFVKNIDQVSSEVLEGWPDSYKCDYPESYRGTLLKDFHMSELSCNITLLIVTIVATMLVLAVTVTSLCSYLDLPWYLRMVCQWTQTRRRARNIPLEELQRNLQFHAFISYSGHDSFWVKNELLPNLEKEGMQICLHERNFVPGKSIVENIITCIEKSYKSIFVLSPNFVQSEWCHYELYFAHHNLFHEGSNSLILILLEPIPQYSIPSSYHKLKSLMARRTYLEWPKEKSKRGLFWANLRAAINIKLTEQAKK

For the compound `CNc1ccc([N+](=O)[O-])cc1-n1cnc(-c2ccc(C(F)(F)F)cc2O)c1`, the inhibition in vivo at 5 mg/kg in experiment [1] amounted to 63.5%. For the same compound, at Toll-like receptor 1/2 [2], the midpoint of the response, the EC50, lay at 35 nM.
On to `O=[N+]([O-])c1ccc(F)c(-c2nc(C3=Cc4ccccc4OC3)no2)c1`, for which the EC50 on Toll-like receptor 1/2 [2] was 30.1 nM. This counts as double-digit nanomolar.
Take `CCCCCCCCCCCCCCCC(=O)N[C@@H](CSCC(COC(=O)CCCCCCCCCCCCCCC)OC(=O)CCCCCCCCCCCCCCC)C(=O)N[C@@H](CO)C(=O)N[C@@H](CCCCN)C(=O)N[C@@H](CCCCN)C(=O)N[C@@H](CCCCN)C(=O)N[C@@H](CCCCN)C(=O)O` (stereo partly specified) (Palmitoyl-C(X1)SKKKK-OH): the Activity at Toll-like receptor 1/2 [3] was 7.95 RLU.
In the case of `O=c1[nH]cc(F)c(=O)[nH]1` [FLUOROURACIL], the inhibition in vivo at 5 mg/kg in experiment [1] worked out at 79.4%; with A549 it was 77.5%.

The values above are taken from ChEMBL document CHEMBL5518233, “Design and Synthesis of 3-(2H-Chromen-3-yl)-5-aryl-1,2,4-oxadiazole Derivatives as Novel Toll-like Receptor 2/1 Agonists That Inhibit Lung Cancer In Vitro and In Vivo” (J Med Chem, 2024).
